Source: patent US12220420B2, “Combination therapy for cancer treatment” (Galera Labs, LLC, priority 2016, dated 2025)

Assays:
H1299 cancer cells = assay: Clonogenic assay of FIG. 4, normalized surviving fraction; assay type: cell-based, human; conditions: 20 μM GC4419, FIG. 4, control also about 1
Protocol: The effect of the pentaaza macrocyclic ring complex GC4419 in combination with inhibitors of hydrogen peroxide metabolism was tested on breast cancer cells (MB231) and non-small cell lung cancer cells (H1299) versus normal cells (HMEC normal mammary epithelial cells and HBEpC normal bronchial epithelial cells). The cells were plated and grown exponentially for 2 days. Either or both of 20 μM of the CG4419 compound and 100 μM BSO were added at time 0 of exposure, and 500 nM Auranofin (a thioredoxin reductase inhibitor) was added 48 hours after, for 15 minutes prior to a clonogenic assay.

HN5 (HNSCC) tumors = assay: Animal model of squamous cell carcinoma of the head and neck with or without radiation; assay type: in vivo
Protocol: The effect of GC4419 was tested in vivo on animal models of squamous cell carcinoma of the head and neck (HNSCC). GC4419 was delivered as a 24 mg/kg daily dose delivered as an ip bolus on 5 consecutive days starting 1 hour prior to irradiation. Radiation was delivered as a single dose of 12 Gy using a 10 mm collimated beam aimed at the center of the tumor.

[1] = Tuder et al. 2003; cited from earlier work
[2] = Anderson 2015; cited from earlier work
[3] = tested on: lung cancer cells (H1299); assay: 3-aminotriazole mediated inactivation of catalase (H2O2 flux); assay type: cell-based, human; conditions: 20 μM GC4419, H1299
Protocol: (§1) The effect of the pentaaza macrocyclic ring complex GC4419 in increasing levels of H2O2 in cancer cells was further tested by measuring the 3-aminotriazole mediated inactivation of catalase, using a method as described in Ahmad et al, J. Biol Chem, 280(6), 4254-4263 (2005). Briefly, head and neck cancer cells (Cal27), lung cancer cells (H1299) and breast cancer cells (MB231) were grown in 60 mm dishes, transduced with 50 MOI adCat to genetically increase catalase expression, and allowed 48 hours to recover so that the activity of catalase could increase to maximal levels. Afterwards, 50 mM AT was added for 5 minutes, which irreversibly binds to and inhibits the catalase intermediate formed in the presence of H2O2. 20 μM GC4419 was added, and cells were collected at 10 minute intervals for 60 minutes, and the inhibition of catalase was determined. A Lowry's protein assay determined the total protein concentration of individual samples. This method provides a stoichiometry of one catalase molecule being inhibited for each molecule of H2O2, thereby providing for precise measurements of changes in H2O2 flux. The results are shown in FIG. 3 (left hand side is Cal27, middle is H1299, and right hand side is MB231).

[4] = tested on: breast cancer cells (MB231); assay: as above; assay type: cell-based, human; conditions: 20 μM GC4419, MB231
Protocol: as §1

[5] = tested on: human lung cancer cells (H292); assay: PeroxyOrange-1 (PO-1) oxidation as a measure of steady-state H2O2; assay type: cell-based
Protocol: The effects on H2O2 fluxes of a pentaaza macrocyclic ring complex (GC4419) provided in combination with inhibitors of H2O2 metabolism were tested in human lung cancer cells (H292). The H292 cells were treated with 20 μM GC4419 for 3 and 24 hours, and PeroxyOrange-1 (PO-1) oxidation was monitored as a measure of steady-state H2O2. […] Also, the combination of GC4419+BSO+AT for 3 hours (B-AT 4419 3) and 24 hours (B-AT 4419 24) further increased PO-1 oxidation to 3-fold greater than a control. The PO-1 oxidation was also monitored in dosing the cells three times with 100 μM hydrogen peroxide (H2O2).

[6] = tested on: Subcutaneous H1299 tumors; assay: Non-small cell lung cancer tumor xenograft model with or without radiation; assay type: in vivo
Protocol: The effect of the pentaaza macrocyclic ring complex GC4419 was tested in vivo on non-small cell lung cancer (NSCLC) in a tumor xenograft model. Subcutaneous H1299 tumors were subjected to biologically equivalent fractionation schemes of 18 Gy×1 dose or 2 Gy×16 doses (delivered on consecutive days), 1 hour following an initial injection of 24 mg/kg GC4419. GC4419 was also administered on the next 4 consecutive days after the first injection (given, in the case of the 2 Gy fraction dose experiment, 1 hour prior to each of those 4 days' radiation treatments).

[7] = tested on: Breast cancer cells (MB231) and lung cancer cells (H1299); assay: Clonogenic killing in presence and absence of N-acetylcysteine (NAC); assay type: cell-based, human; conditions: 10 mM of NAC; 20 μM GC4419, 100 μM BSO, 500 nM Au
Protocol: Breast cancer cells (MB231) and lung cancer cells (H1299) were grown in culture to 75% confluence and treated with either 20 μM GC4419, or 100 μM BSO with 500 nM Au added after 48 hours, or all of GC4419, BSO and Au. The cancer cells were also treated with the same sets of compounds, but with the further addition of 10 mM of NAC. […] Thus, the results support that pentaaza macrocyclic ring complexes such as GC4419 combined with inhibitors of hydrogen peroxide metabolism can selectively kill cancer cells versus normal cells via oxidative stress correlated with increase H2O2 fluxes.

lung cancer cells (H292) = assay: Total glutathione levels, DTNB recycling spectrophotometric assay; assay type: cell-based, human; conditions: 50 μM or 100 μM BSO, 24 hours
Protocol: (§2) The effect of buthionine sulfoximine (BSO) on reduced glutathione (GSH) levels in breast cancer cells (MB231) and lung cancer cells (H292) was examined. The cells were plated and grown to 75% confluency, then treated with either 50 μM BSO or 100 μM BSO for another 24 hours before harvesting for analysis for total glutathione levels using a DTNB recycling spectrophotometric assay.

[8] = tested on: breast cancer cells (MB231); assay: as above; assay type: cell-based, human; conditions: 50 μM or 100 μM BSO, 24 hours
Protocol: as §2

[9] = tested on: Non-small cell lung cancer cells (H1299); assay: Clonogenic cell survival assay, auranofin alone and with ionizing radiation; assay type: cell-based, human
Protocol: The effects of an inhibitor of hydrogen peroxide metabolism, auranofin (a thioredoxin reductase inhibitor), on cancer cells was tested in a clonogenic cell survival assay to determine the effects of the compound alone and in combination with ionizing radiation. Non-small cell lung cancer cells (H1299) were exponentially grown and treated with auranofin (Au) either by itself for 15 minutes, or 15 minutes prior to the first of two ionizing radiation (IR) doses (2 Gy each) spaced 24 hours apart. After the last ionizing radiation dose, the cells were trypsinized, counted, replated at varying lower densities and incubated for 12 days. Plates were stained and counted for clonogenic survival assays. […] Furthermore, treatment with auranofin sensitized the cancer cells to radiation, thereby increasing the efficiency of the ionizing radiation in cell killing (Auranofin+IR) as compared to administration of ionizing radiation alone (IR 4 Gy).

[10] = 24 mg/kg daily ip bolus, 5 consecutive days
[11] = 24 mg/kg GC4419, 5 consecutive days

[Cl][Mn][Cl].c1cc2nc(c1)CN[C@H]1CCCC[C@@H]1NCCN[C@H]1CCCC[C@@H]1NC2 [GC4419]
normalized surviving cell fraction (on a log scale) (H1299 cancer cells): about 1 | tumor growth (HN5 (HNSCC) tumors; [10]): significant growth delay | tumor volumes as compared to a control (HN5 (HNSCC) tumors; [10]): reduced tumor volumes | tumor growth, combination with radiation (HN5 (HNSCC) tumors; 24 mg/kg daily ×5 starting 1 hour prior to single dose of 12 Gy): even greater growth delays | VEGFr inhibitor-induced pulmonary disease [1]: attenuate VEGFr inhibitor-induced pulmonary disease | oral mucositis [2]: reduce oral mucositis | steady-state levels of intracellular H2O2 flux, normalized to the control [3]: significant increases | steady-state levels of intracellular H2O2 flux, normalized to the control [4]: significant increases | increase in PO-1 oxidation as compared to the control ([5]; 20 μM GC4419, 3 hours): 1.5 fold | increase in PO-1 oxidation as compared to the control ([5]; 20 μM GC4419, 24 hours): 1.5 fold | response of NSCLC tumors to radiation ([6]; 24 mg/kg GC4419 1 hour before 18 Gy×1 or 2 Gy×16): significantly enhancing radiation induced growth delay, and survival | anti-cancer effect, cancer size as compared to the control [6, 11]: reduced cancer size | survival as compared to the control [6, 11]: improved survival

CC(=O)N[C@@H](CS)C(=O)O [NAC, N-acetylcysteine]
effect of NAC on cell killing caused by GC4419+Au and/or BSO [7]: nearly completely inhibited the cell killing

CCCCS(=N)(=O)CCC(N)C(=O)O (stereo not shown) [BSO, buthionine sulfoximine]
glutathione levels (lung cancer cells (H292)): significantly decreases | glutathione levels [8]: significantly decreases

CC(=O)OCC1OC([S-])C(OC(C)=O)C(OC(C)=O)C1OC(C)=O.CCP(CC)CC.[Au+] (stereo not shown) [auranofin, gold(+1)cation; 3,4,5-triacetyloxy-6-(acetyloxymethyl)oxane-2-thiolate; triethylphosphanium]
normalized surviving cell fraction ([9]; 250 nM of auranofin, FIG. 6): over 0.5 | cell killing as compared to a control ([9]; 250 nM, 15 minutes): significant cell killing | response of cancer cells to ionizing radiation ([9]; 15 minutes prior to first of two IR doses (2 Gy each), versus IR 4 Gy alone): significantly increases
